Reference: patent US8541588B2, “Sulfonamide derivatives” (Pfizer Limited, priority 2009, dated 2013)

Each compound was assayed against T1, Nav1.7 (or SCN9A) channel; HEK cells stably transfected with hSCN9A (Homo sapiens, UniProt Q15858) (assay: Nav1.7 block, PatchXpress 7000 automated whole-cell voltage clamp, estimated IC50 (EIC50)). Settings: not given.
T1 construct: expressed in transfected cells
Type: cell-based

T1 sequence (Q15858 whole entry): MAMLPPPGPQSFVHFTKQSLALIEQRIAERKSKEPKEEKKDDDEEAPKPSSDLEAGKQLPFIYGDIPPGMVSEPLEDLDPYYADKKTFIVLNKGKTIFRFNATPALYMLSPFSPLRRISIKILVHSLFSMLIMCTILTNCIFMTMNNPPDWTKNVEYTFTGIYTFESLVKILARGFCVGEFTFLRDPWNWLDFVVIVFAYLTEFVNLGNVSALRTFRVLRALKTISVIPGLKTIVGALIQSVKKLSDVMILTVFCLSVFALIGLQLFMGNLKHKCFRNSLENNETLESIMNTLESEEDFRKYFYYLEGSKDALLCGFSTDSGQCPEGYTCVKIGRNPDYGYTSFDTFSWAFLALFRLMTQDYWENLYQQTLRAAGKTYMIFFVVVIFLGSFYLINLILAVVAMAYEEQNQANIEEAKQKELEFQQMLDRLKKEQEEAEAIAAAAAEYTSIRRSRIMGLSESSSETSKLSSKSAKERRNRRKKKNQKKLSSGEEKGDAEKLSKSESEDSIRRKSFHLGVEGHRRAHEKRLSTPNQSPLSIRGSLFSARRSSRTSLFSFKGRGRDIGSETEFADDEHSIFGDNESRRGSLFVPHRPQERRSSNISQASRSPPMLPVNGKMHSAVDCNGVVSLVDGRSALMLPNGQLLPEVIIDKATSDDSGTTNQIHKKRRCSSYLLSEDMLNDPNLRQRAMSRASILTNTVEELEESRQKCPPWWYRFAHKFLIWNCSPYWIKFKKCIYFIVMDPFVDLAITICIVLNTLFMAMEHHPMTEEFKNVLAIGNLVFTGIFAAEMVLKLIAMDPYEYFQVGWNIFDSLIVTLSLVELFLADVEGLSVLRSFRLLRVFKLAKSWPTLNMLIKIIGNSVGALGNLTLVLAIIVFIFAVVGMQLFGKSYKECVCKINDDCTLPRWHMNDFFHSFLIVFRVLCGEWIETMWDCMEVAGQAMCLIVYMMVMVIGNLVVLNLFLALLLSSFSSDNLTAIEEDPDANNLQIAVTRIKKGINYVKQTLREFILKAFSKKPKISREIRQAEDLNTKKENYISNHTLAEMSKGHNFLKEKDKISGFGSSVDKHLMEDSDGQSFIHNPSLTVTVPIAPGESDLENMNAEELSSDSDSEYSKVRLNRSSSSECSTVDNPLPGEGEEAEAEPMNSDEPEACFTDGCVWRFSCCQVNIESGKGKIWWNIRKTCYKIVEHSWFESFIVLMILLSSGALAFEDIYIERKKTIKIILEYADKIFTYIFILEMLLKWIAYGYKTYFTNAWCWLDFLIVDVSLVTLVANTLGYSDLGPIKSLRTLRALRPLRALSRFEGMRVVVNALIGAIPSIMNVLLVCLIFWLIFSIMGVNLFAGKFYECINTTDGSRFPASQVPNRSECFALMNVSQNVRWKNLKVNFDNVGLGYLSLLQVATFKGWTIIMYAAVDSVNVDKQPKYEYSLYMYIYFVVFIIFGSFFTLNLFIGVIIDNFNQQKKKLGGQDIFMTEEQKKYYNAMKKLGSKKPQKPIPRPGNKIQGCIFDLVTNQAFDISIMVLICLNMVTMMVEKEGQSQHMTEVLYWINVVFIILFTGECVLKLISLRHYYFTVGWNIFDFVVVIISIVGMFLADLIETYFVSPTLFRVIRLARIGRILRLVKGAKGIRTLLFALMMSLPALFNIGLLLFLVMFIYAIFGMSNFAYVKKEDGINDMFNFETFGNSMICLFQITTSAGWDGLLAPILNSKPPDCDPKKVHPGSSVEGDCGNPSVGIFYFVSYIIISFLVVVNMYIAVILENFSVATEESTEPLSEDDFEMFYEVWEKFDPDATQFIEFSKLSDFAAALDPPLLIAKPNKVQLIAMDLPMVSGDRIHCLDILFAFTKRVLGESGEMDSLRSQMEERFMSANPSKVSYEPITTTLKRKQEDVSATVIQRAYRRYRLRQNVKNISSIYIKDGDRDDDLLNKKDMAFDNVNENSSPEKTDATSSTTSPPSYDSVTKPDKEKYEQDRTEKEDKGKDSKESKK

Row | SMILES | IC50 [nM]
1 | O=S(=O)(Nc1ncns1)c1cc(F)c(Oc2ccc(C(F)(F)F)cc2C2=CCNCC2)cc1F [Example 733, 2,5-difluoro-4-[2-(1,2,3,6-tetrahydropyridin-4-yl)-4-(trifluoromethyl)phenoxy]-N-1,2,4-thiadiazol-5-ylbenzenesulfonamide] | 10

Same assay, conditions: estimated IC50; hSCN9A HEK cells, PatchXpress platform; Examples 283-814

Row | SMILES | IC50 [nM]
2 | Cn1nccc1-c1cc(CCO)ccc1Oc1ccc(S(=O)(=O)Nc2ncc(F)s2)cc1C#N [Example 716, 3-cyano-N-(5-fluoro-1,3-thiazol-2-yl)-4-[4-(2-hydroxyethyl)-2-(1-methyl-1H-pyrazol-5-yl)phenoxy]benzenesulfonamide] | 430
3 | Cn1ncnc1-c1cc(Cl)ccc1Oc1ccc(S(=O)(=O)Nc2ncc(F)s2)cc1C#N [Example 717, 4-[4-chloro-2-(1-methyl-1H-1,2,4-triazol-5-yl)phenoxy]-3-cyano-N-(5-fluoro-1,3-thiazol-2-yl)benzenesulfonamide] | >300
4 | Cn1nccc1-c1cc(C(F)(F)F)ccc1Oc1ccc(S(=O)(=O)Nc2ncc(F)s2)cc1C#N [Example 718, 3-cyano-N-(5-fluoro-1,3-thiazol-2-yl)-4-[2-(1-methyl-1H-pyrazol-5-yl)-4-(trifluoromethyl)phenoxy]benzenesulfonamide] | 33
5 | Cn1nc(C(F)(F)F)cc1-c1ccc(Oc2ccc(S(=O)(=O)Nc3ncc(F)s3)cc2C#N)cc1F [Example 719, 3-cyano-4-{3-fluoro-4-[1-methyl-3-(trifluoromethyl)-1H-pyrazol-5-yl]phenoxy}-N-(5-fluoro-1,3-thiazol-2-yl)benzenesulfonamide] | 160
6 | Cn1nc(C(F)(F)F)cc1-c1ccc(Oc2ccc(S(=O)(=O)Nc3ncc(F)s3)cc2C#N)c(Cl)c1 [Example 720, 4-{2-chloro-4-[1-methyl-3-(trifluoromethyl)-1H-pyrazol-5-yl]phenoxy}-3-cyano-N-(5-fluoro-1,3-thiazol-2-yl)benzenesulfonamide] | 56
7 | Cn1nccc1-c1cc(C#N)ccc1Oc1ccc(S(=O)(=O)Nc2nccs2)cc1F [Example 721, 4-[4-Cyano-2-(1-methyl-1H-pyrazol-5-yl)phenoxy]-3-fluoro-N-1,3-thiazol-2-ylbenzenesulfonamide] | 160
8 | O=S(=O)(Nc1nccs1)c1ccc(Oc2cc(Cl)ccc2-c2ccn[nH]2)c(F)c1 [Example 722, 4-[5-Chloro-2-(1H-pyrazol-5-yl)phenoxy]-3-fluoro-N-1,3-thiazol-2-ylbenzenesulfonamide] | 140
9 | CC(C)Cc1ccc(Oc2ccc(S(=O)(=O)Nc3nccs3)cc2F)c(-c2ccnn2C)c1 [Example 723, 3-Fluoro-4-[4-isobutyl-2-(1-methyl-1H-pyrazol-5-yl)phenoxy]-N-1,3-thiazol-2-ylbenzenesulfonamide] | 64
10 | O=S(=O)(Nc1ncns1)c1ccc(Oc2ccc(Cl)cc2-c2cn[nH]c2)c(Cl)c1 [Example 724, 3-chloro-4-[4-chloro-2-(1H-pyrazol-4-yl)phenoxy]-N-1,2,4-thiadiazol-5-ylbenzenesulfonamide] | 1.7
11 | CN1CCC(n2nccc2-c2cc(Cl)ccc2Oc2ccc(S(=O)(=O)Nc3ncns3)cc2C#N)CC1 [Example 725, 4-{4-chloro-2-[1-(1-methylpiperidin-4-yl)-1H-pyrazol-5-yl]phenoxy}-3-cyano-N-1,2,4-thiadiazol-5-ylbenzenesulfonamide] | 20
12 | O=S(=O)(Nc1cscn1)c1cc(Cl)c(Oc2ccc(Cl)cc2-c2ccnn2C2CNC2)cc1F [Example 726, 4-[2-(1-azetidin-3-yl-1H-pyrazol-5-yl)-4-chlorophenoxy]-5-chloro-2-fluoro-N-1,3-thiazol-4-ylbenzenesulfonamide] | 5.8
13 | N#Cc1cc(S(=O)(=O)Nc2cscn2)ccc1Oc1ccc(C(F)(F)F)cc1-c1cnn(C2CNC2)c1 [Example 727, 4-[2-(1-azetidin-3-yl-1H-pyrazol-4-yl)-4-(trifluoromethyl)phenoxy]-3-cyano-N-1,3-thiazol-4-ylbenzenesulfonamide] | 1900
14 | N#Cc1cc(S(=O)(=O)Nc2ncns2)ccc1Oc1ccc(Cl)cc1-c1ccnn1C1CNC1 [Example 728, 4-[2-(1-azetidin-3-yl-1H-pyrazol-5-yl)-4-chlorophenoxy]-3-cyano-N-1,2,4-thiadiazol-5-ylbenzenesulfonamide] | 4.8
15 | CN1CC(n2nccc2-c2cc(Cl)ccc2Oc2ccc(S(=O)(=O)Nc3cscn3)cc2C#N)C1 [Example 729, 4-{4-chloro-2-[1-(1-methylazetidin-3-yl)-1H-pyrazol-5-yl]phenoxy}-3-cyano-N-1,3-thiazol-4-ylbenzenesulfonamide] | 22
16 | CN1CC(n2nccc2-c2cc(Cl)ccc2Oc2cc(F)c(S(=O)(=O)Nc3cscn3)cc2Cl)C1 [Example 730, 5-chloro-4-{4-chloro-2-[1-(1-methylazetidin-3-yl)-1H-pyrazol-5-yl]phenoxy}-2-fluoro-N-1,3-thiazol-4-ylbenzenesulfonamide] | 9.9
17 | Nc1cc(-c2cc(Cl)ccc2Oc2cc(F)c(S(=O)(=O)Nc3ncns3)cc2Cl)ccn1 [Example 732, 4-[2-(2-aminopyridin-4-yl)-4-chlorophenoxy]-5-chloro-2-fluoro-N-1,2,4-thiadiazol-5-ylbenzenesulfonamide] | 3.5
18 | CN1CCC(c2cc(Cl)ccc2Oc2cc(F)c(S(=O)(=O)Nc3ncns3)cc2F)CC1 [Example 734, 4-[4-chloro-2-(1-methylpiperidin-4-yl)phenoxy]-2,5-difluoro-N-1,2,4-thiadiazol-5-ylbenzenesulfonamide] | 53

Row | SMILES | IC50 [nM]
19 | Cn1nccc1-c1cc(Br)ccc1Oc1ccc(S(=O)(=O)Nc2ncns2)cc1C(N)=O [Example 735, 2-[4-bromo-2-(1-methyl-1H-pyrazol-5-yl)phenoxy]-5-[(1,2,4-thiadiazol-5-ylamino)sulfonyl]benzamide] | 1000
20 | N#Cc1cc(S(=O)(=O)Nc2ncns2)ccc1Oc1ccc(Cl)cc1-c1ccnc(N2CCNCC2)c1 [Example 736, 4-[4-chloro-2-(2-piperazin-1-ylpyridin-4-yl)phenoxy]-3-cyano-N-1,2,4-thiadiazol-5-ylbenzenesulfonamide] | 2.7
21 | O=S(=O)(Nc1ncns1)c1ccc(Oc2ccc(Cl)cc2-c2cn[nH]c2)c(F)c1 [Example 737, 4-[4-chloro-2-(1H-pyrazol-4-yl)phenoxy]-3-fluoro-N-1,2,4-thiadiazol-5-ylbenzenesulfonamide] | 17
22 | O=S(=O)(Nc1ncns1)c1cc(F)c(Oc2ccc(Cl)cc2-c2cn[nH]c2)cc1F [Example 738, 4-[4-chloro-2-(1H-pyrazol-4-yl)phenoxy]-2,5-difluoro-N-1,2,4-thiadiazol-5-ylbenzenesulfonamide] | 1.4
23 | Cn1nccc1-c1cc(Cl)ccc1Oc1ncc(S(=O)(=O)Nc2nccs2)cc1C#N [Example 739, 6-[4-chloro-2-(1-methyl-1H-pyrazol-5-yl)phenoxy]-5-cyano-N-1,3-azol-2-ylpyridine-3-sulfonamide] | 150
24 | CCn1nc(C(F)(F)F)cc1-c1ccc(Oc2ncc(S(=O)(=O)Nc3nccs3)cc2C#N)cc1 [Example 740, 5-cyano-6-{4-[1-ethyl-3-(trifluoromethyl)-1H-pyrazol-5-yl]phenoxy}-N-1,3-thiazol-2-ylpyridine-3-sulfonamide] | 400
25 | N#Cc1cc(S(=O)(=O)Nc2ncns2)ccc1Oc1ccc(C(F)(F)F)cc1-c1ccn[nH]1 [Example 741, 3-cyano-4-[2-(1H-pyrazol-5-yl)-4-(trifluoromethyl)phenoxy]-N-1,2,4-thiadiazol-5-ylbenzenesulfonamide] | 7.8
26 | Nc1n[nH]cc1-c1cc(Cl)ccc1Oc1cc(F)c(S(=O)(=O)Nc2ncns2)cc1F [Example 742, 4-[2-(3-amino-1H-pyrazol-4-yl)-4-chlorophenoxy]-2,5-difluoro-N-1,2,4-thiadiazol-5-ylbenzenesulfonamide] | 3.6
27 | N#Cc1cc(S(=O)(=O)Nc2ncns2)ccc1Oc1ccc(Cl)cc1-c1ccnc(Cl)c1 [Example 743, 4-[4-chloro-2-(2-chloropyridin-4-yl)phenoxy]-3-cyano-N-1,2,4-thiadiazol-5-ylbenzenesulfonamide] | 12
28 | O=S(=O)(Nc1ccncn1)c1ccc(Oc2ccc(Cl)cc2C2CCNCC2)c(Cl)c1 [Example 744, 3-chloro-4-(4-chloro-2-piperidin-4-ylphenoxy)-N-pyrimidin-4-ylbenzenesulfonamide] | 170
29 | Cn1nccc1-c1cc(Cl)ccc1Oc1ccc(S(=O)(=O)Nc2ccc(F)cn2)cc1Cl [Example 745, 3-chloro-4-[4-chloro-2-(1-methyl-1H-pyrazol-5-yl)phenoxy]-N-(5-fluoropyridin-2-yl)benzenesulfonamide] | 120
30 | O=S(=O)(Nc1ccncn1)c1ccc(Oc2ccc(Cl)cc2-c2ccn[nH]2)c(Cl)c1 [Example 746, 3-chloro-4-[4-chloro-2-(1H-pyrazol-5-yl)phenoxy]-N-pyrimidin-4-ylbenzenesulfonamide] | 95
31 | O=S(=O)(Nc1nncs1)c1ccc(Oc2ccc(Cl)cc2-c2ccn[nH]2)c(Cl)c1 [Example 747, 3-chloro-4-[4-chloro-2-(1H-pyrazol-5-yl)phenoxy]-N-1,3,4-adiazol-2-ylbenzenesulfonamide] | 50
32 | O=S(=O)(Nc1nncs1)c1cc(Cl)c(Oc2ccc(Cl)cc2-c2ccnn2CCO)cc1F [Example 748, 5-chloro-4-{4-chloro-2-[1-(2-hydroxyethyl)-1H-pyrazol-5-yl]phenoxy}-2-fluoro-N-1,3,4-thiadiazol-2-ylbenzenesulfonamide] | 170
33 | Cc1n[nH]cc1-c1cc(Cl)ccc1Oc1ccc(S(=O)(=O)Nc2nccs2)cc1F [Example 749, 4-[4-chloro-2-(3-methyl-1H-pyrazol-4-yl)phenoxy]-3-fluoro-N-1,3-thiazol-2-ylbenzenesulfonamide] | 45
34 | O=S(=O)(Nc1cscn1)c1cc(F)c(Oc2ccc(OC(F)(F)F)cc2-c2cn[nH]c2)cc1F [Example 750, 2,5-difluoro-4-[2-(1H-pyrazol-4-yl)-4-(trifluoromethoxy)phenoxy]-N-1,3-thiazol-4-ylbenzenesulfonamide] | 210
35 | N#Cc1cc(S(=O)(=O)Nc2ncns2)ccc1Oc1cc(Cl)c(F)cc1-c1ccn[nH]1 [Example 751, 4-[5-chloro-4-fluoro-2-(1H-pyrazol-5-yl)phenoxy]-3-cyano-N-1,2,4-thiadiazol-5-ylbenzenesulfonamide] | 13
